Laboratory results from patent US10301284B2, “Therapeutic inhibitory compounds” (LifeSci Pharmaceuticals, Inc., priority 2016, dated 2019).
pEC50, pIC50: −log10 of the molar value. Like-named read-outs stand apart in the source and are kept apart here.

Experiments:
human Plasma Kallikrein [1] = target: T1, human Plasma Kallikrein (Homo sapiens (Human), UniProt P03952); test: In vitro enzyme inhibition of human plasma kallikrein (Pro-Phe-Arg-AMC cleavage); format: biochemical; details: human plasma kallikrein, PFR-AMC substrate, 37° C.; read-out: hPK IC50
How it was run: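 Human plasma kallikrein preincubated 5 min at 37 °C with compound in 50 mM Tris-HCl pH 7.5, 150 mM NaCl, 0.01% Triton X-100. Reaction started with Pro-Phe-Arg-AMC, fluorescence read every 43 s for 1 h at 37 °C. IC50 from highest mean velocity over 20 reads (~15 min).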

human Plasma Kallikrein [2] = target: T1, human Plasma Kallikrein; test: Human whole blood kallikrein inhibition (ellagic acid-activated human plasma, Z-FR-2-AMC substrate); format: biochemical
Protocol: The ability of the compounds disclosed herein to inhibit human plasma kallikrein activity was quantified according to the procedures below.
All dilutions were prepared in an assay buffer comprising 50 mM Tris-HCl pH 7.2, 150 mM NaCl, and 0.01% Triton X-100.
Human plasma was thawed on ice and centrifuged for 15 min at 4° C. to remove platelets. A 1 mM stock solution of ellagic acid was diluted to 8 μM and mixed with human plasma, after removing platelets, at a ratio of 1:0.8. The mixture of human plasma and ellagic acid was further diluted 32-fold in the assay buffer, to yield the final mixture for use in the inhibition assay.
A 22.5 μL volume of the final mixture of human plasma and ellagic acid was added to a 96-well microwell plate and the plate was incubated for 15 min at 37° C.
The test compound solution was prepared to provide final concentrations of 20 μM, 5 μM, 1.25 μM, 312.5 nM, 78.125 nM, 19.531 nM, 4.883 nM, 1.221 nM, 0.305 nM, and 0.076 nM. Each test compound concentration was tested in duplicates.
In addition to the inhibitor control and test wells, the 96 well assay plate included positive control wells which contain the mixture of human plasma and ellagic acid without test compounds, and background wells which contain neither the mixture of human plasma and ellagic acid nor the test compounds. The total volume of liquid in positive control and background wells was brought up to 35 μL using the assay buffer.
The assay plate containing test compounds mixed with human plasma and ellagic acid and appropriate controls was incubated at 37° C. for 5 min. A 10 mM stock solution of substrate Z-FR-2-AMC was diluted to 133.2 μM in the assay buffer, and 15 μL of the diluted substrate was added to each well, to yield a final substrate concentration of 40 μM in each well. The reagents were mixed by shaking the plate gently for 30 sec.
The enzyme reaction was quantified by immediate kinetic reading of the assay plate using excitation/emission wavelengths of 330 nm/440 nm respectively. Fluorescence intensity was recorded for 60 min, using a time interval of 43 sec.
The inhibition activity of the test compounds were evaluated using the IC50 values, calculated according to the dose-response curve of the test compounds, fitted using the “log(inhibitor)−response(variable slope)” equation in GraphPadPrism software (GraphPad Software, Inc.).
The percentage inhibition (EC50) was calculated using the following equation:
[formula] where, Mean(BG) is the average value of the fluorescence intensity of the background wells and Mean(PC) is the average value of the fluorescence intensity of the positive control wells.

[3] = Pharmacokinetic evaluation, oral exposure in rats; format: in vivo; details: male Sprague-Dawley rats, single oral dose 10 mg/kg via oral gavage, plasma
Protocol: Pharmacokinetic studies of select compounds were performed to assess the pharmacokinetic properties. Male Sprague-Dawley rats were administered a single oral dose of the test compound at 10 mg/kg (dose concentration: 2 mg/mL, dose volume: 5 ml/kg) via oral gavage. Blood samples were collected via jugular vein at pre-dose, post-dose 5 min, 15 min, 30 min, 1 h, 2 h, 4 h, 6 h, 8 h, 10 h and 24 h, and centrifuged (8000 rpm for 6 minutes at 2-8° C.). The resulting plasma fractions were analyzed by LC/MS/MS to determine the concentration of the test compound.

[4] = human plasma activated with ellagic acid, Z-FR-2-AMC 40 μM, 37° C., read-out: HWB EC50

T1 sequence (P03952 391-638 limits assumed): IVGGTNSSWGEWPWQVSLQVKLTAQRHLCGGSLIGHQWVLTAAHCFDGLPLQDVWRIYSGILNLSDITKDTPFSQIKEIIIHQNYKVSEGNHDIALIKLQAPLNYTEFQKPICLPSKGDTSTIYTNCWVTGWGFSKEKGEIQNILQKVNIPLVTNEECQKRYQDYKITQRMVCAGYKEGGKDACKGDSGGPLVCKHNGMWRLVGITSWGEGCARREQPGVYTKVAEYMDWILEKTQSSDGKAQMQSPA
T1 sequence (P03952 20-390 partner limits assumed): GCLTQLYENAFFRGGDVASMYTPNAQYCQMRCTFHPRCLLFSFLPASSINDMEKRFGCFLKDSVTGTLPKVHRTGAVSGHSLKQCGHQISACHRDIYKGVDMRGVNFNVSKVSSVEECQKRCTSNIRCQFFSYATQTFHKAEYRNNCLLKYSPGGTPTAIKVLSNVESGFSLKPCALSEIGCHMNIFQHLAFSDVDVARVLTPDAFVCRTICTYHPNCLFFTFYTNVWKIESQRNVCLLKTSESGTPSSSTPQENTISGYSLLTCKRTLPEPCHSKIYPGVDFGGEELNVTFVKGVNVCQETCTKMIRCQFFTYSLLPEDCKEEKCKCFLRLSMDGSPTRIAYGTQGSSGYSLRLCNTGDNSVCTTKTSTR

Molecule	pIC50 (human Plasma Kallikrein [1])	pEC50 (human Plasma Kallikrein [2]; [4])	AUC ([3]; rat, read-out: AUC) [ng·h/mL]	AUC [3]	pEC50 (human Plasma Kallikrein [2])
Cc1cc(N)nc(C)c1CNC(=O)c1ncn(Cc2ccc3ncc(Cl)cc3c2)n1 [Example 4, N-((6-amino-2,4-dimethylpyridin-3-yl)methyl)-1-((3-chloroquinolin-6-yl)methyl)-1H-1,2,4-triazole-3-carboxamide]	> 7.00	> 7.00	< 100	–	–
2-amino-N-((6-amino-2,4-dimethylpyridin-3-yl)methyl)-1-((3-chloroquinolin-6-yl)methyl)-1H-imidazole-4-carboxamide [Example 24]	> 7.00	> 7.00	–	B (>100 ng · h/mL to ≤1000 ng · h/mL)	–
Cc1cc(N)nc(C)c1CNC(=O)c1cn(Cc2ccc3ncc(Cl)cc3c2)c2ncccc12 [Example 12, N-((6-amino-2,4-dimethylpyridin-3-yl)methyl)-1-((3-chloroquinolin-6-yl)methyl)-1H-pyrrolo[2,3-b]pyridine-3-carboxamide]	> 7.00	–	100 to 1000	–	> 7.00
CC(=O)Nc1cn(Cc2ccc3ncc(Cl)cc3c2)nc1C(=O)NCc1c(C)cc(N)nc1C [Example 19, 4-acetamido-N-((6-amino-2,4-dimethylpyridin-3-yl)methyl)-1-((3-chloroquinolin-6-yl)methyl)-1H-pyrazole-3-carboxamide]	> 7.00	> 7.00	100 to 1000	–	–
Cc1cc(N)nc(C)c1CNC(=O)c1coc(Cc2ccc3ncc(Cl)cc3c2)n1 [Example 29, N-((6-amino-2,4-dimethylpyridin-3-yl)methyl)-2-((3-chloroquinolin-6-yl)methyl)oxazole-4-carboxamide]	> 7.00	> 7.00	1000 to 10000	–	–
4-amino-N-((6-amino-2,4-dimethylpyridin-3-yl)methyl)-1-((3-chloroquinolin-6-yl)methyl)-1H-pyrazole-3-carboxamide [Example 25]	> 7.00	> 7.00	–	C (>1000 ng · h/mL to ≤10,000 ng · h/mL)	–
Cc1cc(N)nc(C)c1CNC(=O)c1cn(Cc2ccc3ncc(Cl)cc3c2)nc1N [Example 17, 3-amino-N-((6-amino-2,4-dimethylpyridin-3-yl)methyl)-1-((3-chloroquinolin-6-yl)methyl)-1H-pyrazole-4-carboxamide]	> 7.00	> 7.00	100 to 1000	–	–
Cc1cc(N)nc(C)c1CNC(=O)c1cn(Cc2ccc3ncc(Cl)cc3c2)c2nccc(C#N)c12 [Example 127, N-((6-amino-2,4-dimethylpyridin-3-yl)methyl)-1-((3-chloroquinolin-6-yl)methyl)-4-cyano-1H-pyrrolo[2,3-b]pyridine-3-carboxamide]	> 7.00	–	100 to 1000	–	> 7.00
Cc1cc(N)nc(C)c1CNC(=O)c1nnc(Cc2ccc3ncc(Cl)cc3c2)[nH]1 [Example 96, N-((6-amino-2,4-dimethylpyridin-3-yl)methyl)-5-((3-chloroquinolin-6-yl)methyl)-4H-1,2,4-triazole-3-carboxamide]	> 7.00	> 7.00	> 10000	–	–
Cc1cc(N)nc(C)c1CNC(=O)c1nnc(Cc2ccc3ncc(Cl)cc3c2)n1C [Example 98, N-((6-amino-2,4-dimethylpyridin-3-yl)methyl)-5-((3-chloroquinolin-6-yl)methyl)-4-methyl-4H-1,2,4-triazole-3-carboxamide]	> 7.00	> 7.00	1000 to 10000	–	–
Cc1cnc2ccc(Cn3cc(C(=O)NCc4ccc(N)nc4C)c(C#N)n3)cc2c1 [Example 82, N-((6-amino-2-methylpyridin-3-yl)methyl)-3-cyano-1-((3-methylquinolin-6-yl)methyl)-1H-pyrazole-4-carboxamide]	> 7.00	> 7.00	100 to 1000	–	–
Cc1cnc2ccc(Cn3cc(C(=O)NCc4c(C)cc(N)nc4C)c(C#N)n3)cc2c1 [Example 81, N-((6-amino-2,4-dimethylpyridin-3-yl)methyl)-3-cyano-1-((3-methylquinolin-6-yl)methyl)-1H-pyrazole-4-carboxamide]	> 7.00	> 7.00	100 to 1000	–	–
Cc1cc(N)nc(C)c1CNC(=O)c1cn(Cc2ccc3ncc(Cl)cc3c2)c(N)n1 [Example 28, 2-amino-N-((6-amino-2,4-dimethylpyridin-3-yl)methyl)-1-((3-chloroquinolin-6-yl)methyl)-1H-imidazole-4-carboxamide]	> 7.00	> 7.00	< 100	–	–
Cc1nc(N)ccc1CNC(=O)c1nn(Cc2ccc3ncc(Cl)cc3c2)c2ccc(=O)[nH]c12 [Example 139, N-((6-amino-2-methylpyridin-3-yl)methyl)-1-((3-chloroquinolin-6-yl)methyl)-5-oxo-4,5-dihydro-1H-pyrazolo[4,3-b]pyridine-3-carboxamide]	> 7.00	–	100 to 1000	–	> 7.00
Cc1cc(N)nc(C)c1CNC(=O)c1cn(Cc2ccc3ncc(Cl)cc3c2)cn1 [Example 3, N-((6-amino-2,4-dimethylpyridin-3-yl)methyl)-1-((3-chloroquinolin-6-yl)methyl)-1H-imidazole-4-carboxamide]	> 7.00	> 7.00	100 to 1000	–	–
Cc1cc(N)nc(C)c1CNC(=O)c1cn(Cc2cc(C#N)c3ncc(Cl)cc3c2)nc1C#N [Example 69, N-((6-amino-2,4-dimethylpyridin-3-yl)methyl)-1-((3-chloro-8-cyanoquinolin-6-yl)methyl)-3-cyano-1H-pyrazole-4-carboxamide]	> 7.00	> 7.00	< 100	–	–
Cc1cc(N)nc(C)c1CNC(=O)c1nnc(Cc2cc(F)c3ncc(Cl)cc3c2)o1 [Example 75, N-((6-amino-2,4-dimethylpyridin-3-yl)methyl)-5-((3-chloro-8-fluoroquinolin-6-yl)methyl)-1,3,4-oxadiazole-2-carboxamide]	> 7.00	> 7.00	1000 to 10000	–	–
Cc1cc(N)nc(C)c1CNC(=O)c1cnn(Cc2ccc3ncc(Cl)cc3c2)c1 [Example 2, N-((6-amino-2,4-dimethylpyridin-3-yl)methyl)-1-((3-chloroquinolin-6-yl)methyl)-1H-pyrazole-4-carboxamide]	> 7.00	> 7.00	100 to 1000	–	–
CC(C)(O)c1cc(Cn2cc(C(=O)NCc3ccc4c(N)nccc4c3)c(C#N)n2)cc2cc(Cl)cnc12 [Example 59, N-((1-aminoisoquinolin-6-yl)methyl)-1-((3-chloro-8-(2-hydroxypropan-2-yl)quinolin-6-yl)methyl)-3-cyano-1H-pyrazole-4-carboxamide]	> 7.00	> 7.00	< 100	–	–
Cc1cc(N)nc(C)c1CNC(=O)c1cn(Cc2ccc3ncc(Cl)cc3c2)c2cncc(C#N)c12 [Example 123, N-((6-amino-2,4-dimethylpyridin-3-yl)methyl)-1-((3-chloroquinolin-6-yl)methyl)-4-cyano-1H-pyrrolo[2,3-c]pyridine-3-carboxamide]	> 7.00	–	< 100	–	> 7.00
Cc1cc(N)nc(C)c1CNC(=O)c1nn(Cc2ccc3ncc(Cl)cc3c2)c2cncc(C#N)c12 [Example 129, N-((6-amino-2,4-dimethylpyridin-3-yl)methyl)-1-((3-chloroquinolin-6-yl)methyl)-4-cyano-1H-pyrazolo[3,4-c]pyridine-3-carboxamide]	> 7.00	–	< 100	–	> 7.00
Cc1cc(N)nc(C)c1CNC(=O)c1cn(Cc2ccc3ncc(Cl)cc3c2)nc1CN [Example 27, N-((6-amino-2,4-dimethylpyridin-3-yl)methyl)-3-(aminomethyl)-1-((3-chloroquinolin-6-yl)methyl)-1H-pyrazole-4-carboxamide]	> 7.00	> 7.00	< 100	–	–
